Read-outs that look alike come from different tables or passages of the source.
Test: Rat 28-day toxicokinetics
Type: in vivo
Details: plasma, po; for AUC: read-out: AUC within 24 hours post dosing; for half-life: read-out: apparent terminal half-life (converted)
Protocol: In the rat repeated-dose toxicokinetic study, fexinidazole was administered orally by gavage once a day for 28 consecutive days to ten or fifteen Crl:CD (SD)IGS BR rats/sex/group at doses of 50, 200, or 800 mg/kg/day. A control group received the vehicle alone (5% Tween 80/0.5% methocel). Ten animals/sex/group were sacrificed at the end of the treatment period on day 29 or 30 of study. The remaining 5 animals/sex/group in the control and high-dose groups were sacrificed on day 43 at the end of a 2-weeks observation period. Systemic exposure to fexinidazole and its sulfoxide and sulfone metabolites was evaluated in three additional animals/sex/group. Samples were taken at predose, and 30 min, 1, 2, 4, 8 and 24 h after dosing on days 1, 14, and 28, and in addition at 48 and 72 h after treatment on day 28.
Toxicokinetic Report for the study No. 0504-2007
SD Standard deviation of the mean […]
t1/2,z Terminal half-life tmax Time to peak plasma concentration
ULOQ Upper limit of quantification
The study was conducted according to the study protocol and related amendment.
Fexinidazole was orally given by gavage once a day for 28 days to male and female Sprague Dawley rats according to the following scheme
Fexinidazole was suspended with 5% Tween 80 in 0.5% Methyl cellulose 400 cP.
6.2. Sample Collection and Handling
Blood samples (about 0.25 mL/sampling time) were withdrawn from retro-orbital sinus plexus under isofluorane anesthesia and put in heparinized plastic tubes kept on a ice-water bath, then centrifuged for 10 min at 1200g at +4°C and two aliquots of about 50 μL of plasma were stored in a freezer at -80°C until analysis. Blood was taken from three rats/gender/dose on Days 1 and 14 at pre-dose and 0.5, 1, 2, 4, 8 and 24 hours after dosing, on Day 28 at pre-dose and 1, 2, 4, 8, 24, 48 and 72 hours after dosing. After the administration of the vehicle, the samples were taken from three rats/gender at pre-dose and […]
6.3. Bioanalytical Method
Rat plasma concentrations of Fexinidazole and its sulfoxide (M1) and sulfone (M2) metabolites were determined by a validated LC/MS/MS method. The calibration range for the assay was 5-1000 ng/mL for Fexinidazole and 25-25000 ng/mL for M1 and M2.
Study samples containing analytes concentrations above the upper limit of quantitation were diluted with blank matrix prior to analysis.
6.4. Pharmacokinetic Calculations
Pharmacokinetic evaluation was carried out using non-compartmental approach with the aid […]
Excel spreadsheet (Microsoft Inc., Seattle, USA). […]
In the calculations, the undetectable concentrations between detectable ones were ignored.
After each dose level, Cmax and tmax of Fexinidazole and sulfoxide and sulfone metabolites […]
linear trapezoidal rule up to the last detectable concentration. On Day 28, since the blood […]
24 hours post dosing was calculated and denoted AUC0-24. This AUC was calculated in order to compare AUC values on Day 28 to those on Day 1 and Day 14. On Day 28, in addition, the half-life of the terminal phase, t1/2,z, was determined by linear regression analysis of the natural-log concentration vs. time curve, where t1/2,z = ln(2)/slope of the regression line.
Fexinidazole and metabolites accumulation ratios, based on Cmax (RA,Cmax), AUC0-24 (RA,AUC0-24) and AUC0-t(last) (RA,AUC0-t(last)), were calculated as the ratio between the parameters obtained on Day 14 and Day 28 to the corresponding one at Day 1. […]
pharmacokinetic parameters of each compound sorted by dose, gender and day of dosing. […]
compound are reported in Tables 1 and 2, whilst individual and mean parameters of each […]
Individual and mean (±SD, CV%) plasma
2A1 - 19A1 of Appendix 1. Individual plasma concentrations of Fexinidazole and both metabolites are plot in Figures 1 - 9, whilst the mean concentrations are plot in Figures 10 - 15. Mean normalized Cmax and AUC0-t(last) values of Fexinidazole and metabolites vs. dose are plot in Figures 16 - 21.
In-study bioanalytical validation data are reported in Appendix 2. All analytical batches met […]

[1] = Sprague Dawley (Crl:CD (SD)IGS BR), 50 mg/kg/day, Day 28, female
[2] = Sprague Dawley (Crl:CD (SD)IGS BR), 50 mg/kg/day, Day 28, male
[3] = Sprague Dawley (Crl:CD (SD)IGS BR), 200 mg/kg/day, Day 28, female
[4] = Sprague Dawley (Crl:CD (SD)IGS BR), 200 mg/kg/day, Day 28, male
[5] = Sprague Dawley (Crl:CD (SD)IGS BR), 800 mg/kg/day, Day 28, female (n=2)
[6] = Sprague Dawley (Crl:CD (SD)IGS BR), 800 mg/kg/day, Day 28, male
[7] = Sprague-Dawley (Crl:CD (SD)IGS BR), 50 mg/kg/day, 50 mg/kg/day po, day 1
[8] = Sprague-Dawley (Crl:CD (SD)IGS BR), 50 mg/kg/day, 50 mg/kg/day po, day 14
[9] = Sprague-Dawley (Crl:CD (SD)IGS BR), 200 mg/kg/day, 200 mg/kg/day po, day 1
[10] = both sexes, Sprague-Dawley (Crl:CD (SD)IGS BR), 200 mg/kg/day, 200 mg/kg/day po, day 14
[11] = both sexes, Sprague-Dawley (Crl:CD (SD)IGS BR), 800 mg/kg/day, 800 mg/kg/day po, day 1
[12] = both sexes, Sprague-Dawley (Crl:CD (SD)IGS BR), 800 mg/kg/day, 800 mg/kg/day po, day 14

Cn1c([N+](=O)[O-])cnc1COc1ccc([S+](C)[O-])cc1 (stereo not drawn) [Fexinidazole sulfoxide]
AUC [1]: 53.8 ± 15.7 µg·h/mL
half-life [1]: 366 ± 228 min
AUC [2]: 29.5 ± 8.92 µg·h/mL
half-life [2]: 300 ± 120 min
AUC [3]: 138 ± 14.2 µg·h/mL
half-life [3]: 486 ± 186 min
AUC [4]: 122 ± 29.3 µg·h/mL
half-life [4]: 378 ± 174 min
AUC [5]: 292 ± 40.3 µg·h/mL
half-life [5]: 516 ± 138 min
AUC [6]: 130 ± 56.8 µg·h/mL
half-life [6]: 396 ± 246 min
Cmax [7]: 2700 ± 1400 ng/mL
Tmax [7]: 2.5 ± 1.22 h
AUC(0-t) (Sprague-Dawley (Crl:CD (SD)IGS BR), 50 mg/kg/day, 50 mg/kg/day po, day 1, read-out: AUC0-t(last)): 15.4 ± 9.28 µg·h/mL
Cmax [8]: 5230 ± 3280 ng/mL
Tmax [8]: 2.17 ± 0.98 h
AUC(0-t) (Sprague-Dawley (Crl:CD (SD)IGS BR), 50 mg/kg/day, 50 mg/kg/day po, day 14, read-out: AUC0-t(last)): 29.8 ± 19.4 µg·h/mL
Cmax [9]: 11400 ± 2170 ng/mL
Tmax [9]: 2.33 ± 0.82 h
AUC(0-t) (both sexes, Sprague-Dawley (Crl:CD (SD)IGS BR), 200 mg/kg/day, 200 mg/kg/day po, day 1, read-out: AUC0-t(last)): 85.9 ± 14.1 µg·h/mL
Cmax [10]: 15800 ± 3170 ng/mL
Tmax [10]: 3.33 ± 1.03 h
AUC(0-t) (both sexes, Sprague-Dawley (Crl:CD (SD)IGS BR), 200 mg/kg/day, 200 mg/kg/day po, day 14, read-out: AUC0-t(last)): 118 ± 38.9 µg·h/mL
Cmax [11]: 31700 ± 3740 ng/mL
Tmax [11]: 4.67 ± 1.63 h
AUC(0-t) (both sexes, Sprague-Dawley (Crl:CD (SD)IGS BR), 800 mg/kg/day, 800 mg/kg/day po, day 1, read-out: AUC0-t(last)): 410 ± 101 µg·h/mL
Cmax [12]: 25000 ± 8990 ng/mL
Tmax [12]: 2.67 ± 1.03 h
AUC(0-t) (both sexes, Sprague-Dawley (Crl:CD (SD)IGS BR), 800 mg/kg/day, 800 mg/kg/day po, day 14, read-out: AUC0-t(last)): 277 ± 160 µg·h/mL
Cmax (female, Sprague Dawley (Crl:CD (SD)IGS BR), 50 mg/kg, Day 1, female): 3890 ± 663 ng/mL
AUC(0-t) (female, Sprague Dawley (Crl:CD (SD)IGS BR), 50 mg/kg, Day 1, female, read-out: AUC0-t(last)): 23.2 ± 5.33 µg·h/mL
Cmax (female, Sprague Dawley (Crl:CD (SD)IGS BR), 50 mg/kg/day, Day 28, female): 11400 ± 6600 ng/mL
AUC(0-t) (female, Sprague Dawley (Crl:CD (SD)IGS BR), 50 mg/kg/day, Day 28, female, read-out: AUC0-t(last)): 78 ± 23.6 µg·h/mL
Cmax (female, Sprague Dawley (Crl:CD (SD)IGS BR), 200 mg/kg, Day 1, female): 12800 ± 1130 ng/mL
AUC(0-t) (female, Sprague Dawley (Crl:CD (SD)IGS BR), 200 mg/kg, Day 1, female, read-out: AUC0-t(last)): 91.4 ± 19.7 µg·h/mL
Cmax (female, Sprague Dawley (Crl:CD (SD)IGS BR), 200 mg/kg/day, Day 28, female): 22300 ± 1470 ng/mL
AUC(0-t) (female, Sprague Dawley (Crl:CD (SD)IGS BR), 200 mg/kg/day, Day 28, female, read-out: AUC0-t(last)): 153 ± 36.9 µg·h/mL
Cmax (female, Sprague Dawley (Crl:CD (SD)IGS BR), 800 mg/kg, Day 1, female): 30600 ± 2620 ng/mL
AUC(0-t) (female, Sprague Dawley (Crl:CD (SD)IGS BR), 800 mg/kg, Day 1, female, read-out: AUC0-t(last)): 453 ± 84.7 µg·h/mL
Cmax (female, Sprague Dawley (Crl:CD (SD)IGS BR), 800 mg/kg/day, Day 28, female (n=2)): 25800 ± 2050 ng/mL
AUC(0-t) (female, Sprague Dawley (Crl:CD (SD)IGS BR), 800 mg/kg/day, Day 28, female (n=2), read-out: AUC0-t(last)): 331 ± 57.3 µg·h/mL
Cmax (male, Sprague Dawley (Crl:CD (SD)IGS BR), 50 mg/kg, Day 1, male): 1500 ± 413 ng/mL
AUC(0-t) (male, Sprague Dawley (Crl:CD (SD)IGS BR), 50 mg/kg, Day 1, male, read-out: AUC0-t(last)): 7.66 ± 2.38 µg·h/mL
Cmax (male, Sprague Dawley (Crl:CD (SD)IGS BR), 50 mg/kg/day, Day 28, male): 4530 ± 664 ng/mL
AUC(0-t) (male, Sprague Dawley (Crl:CD (SD)IGS BR), 50 mg/kg/day, Day 28, male, read-out: AUC0-t(last)): 30.6 ± 10.9 µg·h/mL
Cmax (male, Sprague Dawley (Crl:CD (SD)IGS BR), 200 mg/kg, Day 1, male): 9990 ± 2130 ng/mL
AUC(0-t) (male, Sprague Dawley (Crl:CD (SD)IGS BR), 200 mg/kg, Day 1, male, read-out: AUC0-t(last)): 80.5 ± 4.31 µg·h/mL
Cmax (male, Sprague Dawley (Crl:CD (SD)IGS BR), 200 mg/kg/day, Day 28, male): 11600 ± 2400 ng/mL
AUC(0-t) (male, Sprague Dawley (Crl:CD (SD)IGS BR), 200 mg/kg/day, Day 28, male, read-out: AUC0-t(last)): 138 ± 45 µg·h/mL
Cmax (male, Sprague Dawley (Crl:CD (SD)IGS BR), 800 mg/kg, Day 1, male): 32800 ± 4950 ng/mL
AUC(0-t) (male, Sprague Dawley (Crl:CD (SD)IGS BR), 800 mg/kg, Day 1, male, read-out: AUC0-t(last)): 366 ± 113 µg·h/mL
Cmax (male, Sprague Dawley (Crl:CD (SD)IGS BR), 800 mg/kg/day, Day 28, male): 16600 ± 2080 ng/mL
AUC(0-t) (male, Sprague Dawley (Crl:CD (SD)IGS BR), 800 mg/kg/day, Day 28, male, read-out: AUC0-t(last)): 268 ± 64.1 µg·h/mL

Reference: PMC3006138, “Fexinidazole – A New Oral Nitroimidazole Drug Candidate Entering Clinical Development for the Treatment of Sleeping Sickness” (PLoS Neglected Tropical Diseases, 2010)
